# Test results published in patent publication US8242166B2, “C(10) ethyl ester and C(10) cyclopropyl ester substituted taxanes” (Florida State University Research Foundation, Inc., priority 2008, dated 2012).
# Read-outs that look alike come from different tables or passages of the source.
# What was measured:
# PANC-1 = experiment: MTT cytotoxicity (IC50), PANC-1; assay type: cell-based; conditions: Homo sapiens, 72 h, read-out: IN Vitro IC50 (nm) Panc
# Protocol: (§1) Compound 17932 was tested in four of these cell lines, while the remaining compounds were tested in all of these cell lines. All cell lines were maintained in RPMI-1640 tissue culture medium (TCM, supplemented with antibiotics and 10% fetal bovine serum) and cultured at 37° C. in humidified air containing 5% CO2. To assess the antiproliferative effects of the test compounds, 172 μL of tumor cell suspension (1.45×10^4 cells/ml) were added to each well of a 96-well plate and incubated for 24 h at 37° C. in 5% CO2 in air to allow cells to adhere. Seven 2-fold drug dilutions in TCM/DMSO were performed in triplicate in separate 96-well plates and 28 μL was transferred to the wells containing tumor cells (200 μL final volume/0.1% DMSO). Plates were incubated for 72 h and cell viability was determined by adding 50 μL of warm TCM containing 5 mg/mL MTT (3-[4,5-dimethylthiazol-2-yl]-2,5-diphenyltetrazolium bromide) to each well and incubating for 1 h at 37° C. Plates were processed and the absorbances of the resulting solutions were measured by a plate reader at 570 nm. […] (GraphPad Prism version 4.00 for Windows). Studies were conducted by Taxolog, Inc., Tallahassee, Fla.
# DLD-1 = experiment: MTT cytotoxicity (IC50), DLD-1; assay type: cell-based; conditions: Homo sapiens
# Protocol: as §1
# HT29 = experiment: MTT cytotoxicity (IC50), HT29; assay type: cell-based; conditions: Homo sapiens, HT-29, 72 h, read-out: IN Vitro IC50 (nm) HT29
# Protocol: as §1
# 786-0 = experiment: MTT cytotoxicity (IC50), 786-0; assay type: cell-based; conditions: Homo sapiens
# Protocol: as §1
# A375 = experiment: MTT cytotoxicity (IC50), A375; assay type: cell-based; conditions: Homo sapiens, A-375
# Protocol: as §1
# A549 = experiment: MTT cytotoxicity (IC50), A549; assay type: cell-based; conditions: Homo sapiens, 72 h, read-out: IN Vitro IC50 (nm) A549
# Protocol: as §1
# TK-10 = experiment: MTT cytotoxicity (IC50), TK-10; assay type: cell-based; conditions: Homo sapiens, 72 h, read-out: IN Vitro IC50 (nm) TK10
# Protocol: as §1
# MALME-3 = experiment: MTT cytotoxicity (IC50), MALME-3; assay type: cell-based; conditions: Homo sapiens, 72 h, read-out: IN Vitro IC50 (nm) Malme3
# Protocol: as §1
# OVCAR4 = experiment: MTT cytotoxicity (IC50), OVCAR4; assay type: cell-based; conditions: Homo sapiens, OVCAR-4, 72 h, read-out: IN Vitro IC50 (nm) OVCAR4
# Protocol: as §1
# HOP-18 = experiment: MTT cytotoxicity (IC50), HOP-18; assay type: cell-based; conditions: Homo sapiens, 72 h, read-out: IN Vitro IC50 (nm) HOP18
# Protocol: as §1
# SK-MEL-28 = experiment: MTT cytotoxicity (IC50), SK-MEL-28; assay type: cell-based; conditions: Homo sapiens, 72 h, read-out: IN Vitro IC50 (nm) ske-mel28
# Protocol: as §1
# SNB-19 = experiment: MTT cytotoxicity (IC50), SNB-19; assay type: cell-based; conditions: Homo sapiens, 72 h, read-out: IN Vitro IC50 (nm) SNB19
# Protocol: as §1
# [1] = system: human HT29 colon carcinoma xenografts
# HCT116 = experiment: MTT cytotoxicity (IC50), HCT116; assay type: cell-based; conditions: Homo sapiens, HCT-116, 72 h, read-out: IN Vitro IC50 (nm) HCT116
# Protocol: as §1, with “All” for “Compound 17932 was tested in four of these cell lines, while the remaining compounds were tested in all of these cell lines. All”
# [2] = system: HT29 human tumor xenografts; experiment: HT29 xenograft study e139 (Example 23); assay type: in vivo, nude mice
# [3] = MTT, 72 h, read-out: IN Vitro IC50 (nm) DLD1
# [4] = Resistance MDR1+, read-out: DLD1 Colon (Table 4, quantity not named; IC50 values as Table 2)
structure (smiles),measurement,setting,value
"CC(=O)O[C@H]1C(=O)[C@@]2(C)[C@H]([C@H](OC(=O)c3ccccc3)[C@]3(O)C[C@H](OC(=O)[C@H](O)[C@@H](NC(=O)c4ccccc4)c4ccccc4)C(C)=C1C3(C)C)[C@]1(OC(C)=O)CO[C@@H]1C[C@@H]2O [Paclitaxel, paclitaxel, reference compound]",IC50,PANC-1,4.1 nM
same,IC50,DLD-1; [3],> 10 nM
same,IC50,DLD-1; [4],41 nM
same,IC50,HT29,2.8 nM
same,IC50,"786-0; MTT, 72 h, read-out: IN Vitro IC50 (nm) 786-0",> 10 nM
same,IC50,"786-0; Resistance MDR1+, read-out: 786-0 Renal (Table 4, quantity not named; IC50 values as Table 2)",> 10 nM
same,IC50,"A375; MTT, 72 h, read-out: IN Vitro IC50 (nm) A375",8 nM
same,IC50,"A375; Resistance MRP9, read-out: A375 Melanoma (Table 4, quantity not named; IC50 values as Table 2)",8 nM
same,IC50,A549,3.8 nM
same,IC50,TK-10,4.8 nM
same,IC50,MALME-3,6.5 nM
same,IC50,OVCAR4,2.9 nM
same,IC50,HOP-18,7.2 nM
same,IC50,SK-MEL-28,5.4 nM
same,IC50,SNB-19,6.1 nM
same,antitumor activity,[1]; 30 mg/kg q4d×4,relatively weak activity
same,D 38 TTE,"[1]; mouse, in vivo",27.5 ± 1.9 (6) days
same,Number of Death NTR,"[1]; mouse, in vivo",0
same,Number of Death TR,"[1]; mouse, in vivo",0
CC(=O)O[C@@]12CO[C@@H]1C[C@H](O)[C@@]1(C)C(=O)[C@H](OC(=O)C3CC3)C3=C(C)[C@@H](OC(=O)[C@H](O)[C@@H](NC(=O)OC4CCCC4)c4cccs4)C[C@@](O)([C@@H](OC(=O)c4ccccc4)C12)C3(C)C (stereo partly shown) [Compound 17932],IC50,HCT116,0.6 nM
same,IC50,PANC-1,1.2 nM
same,IC50,DLD-1; [3],1.4 nM
same,IC50,DLD-1; [4],1.4 nM
same,IC50,HT29,0.9 nM
same,MTV (Day 61),[2]; 20 mg/kg i.v. q4d×4,78 mm^3
same,PR responses,"[2]; 20 mg/kg i.v. q4d×4, six mice",5
same,Day 51 mm^3 (tumor size),[2]; 20 mg/kg iv q4d × 4,99.7 mm^3
same,Day 54 mm^3 (tumor size),[2]; 20 mg/kg iv q4d × 4,109.4 mm^3
same,Max. BW Loss %; Day,[2]; 20 mg/kg iv q4d × 4,−19.3%; Day 16
same,Number of Death NTR,"[2]; 20 mg/kg iv q4d × 4, N=6",0
same,Number of Death TR,"[2]; 20 mg/kg iv q4d × 4, N=6",0
